From publication PMC12195250, “Synthesis, Biological Evaluation, Molecular Dynamics, and QM-MM Calculation of Spiro-Acridine Derivatives Against Leishmaniasis” (Microorganisms, 2025)
In brackets after ≈: the same amount, converted by molar mass. Read-outs that look alike come from different tables or passages of the source.

Experiments:
[1] = tested on: L. infantum promastigotes (Strain MHOM/BR/70/BH46); assay: Anti-promastigote effect, Neubauer chamber counting; type: cell-based, Leishmania infantum; conditions: 72 h incubation, read-out: L. infantum IC50PRO
Experimental: (§1) The promastigote cultures of L. infantum (Strain MHOM/BR/70/BH46) and L. amazonensis (Strain MHOM/BR/PH8) were kept in Schneider medium (Sigma-Aldrich, St. Louis, MO, USA) supplemented with 20% fetal bovine serum (FBS) and 1% streptomycin/penicillin in a B.O.D. incubator (J. Prolab, model JP. 100 LBCM/CPAM) at 26 °C. The promastigote strains were used in the exponential growth phase in all stages for experimental purposes.
(§2) The Neubauer chamber method was used to assess the inhibitory concentrations of the synthesized spiro-acridines capable of eliminating 50% of the promastigotes in cultures of L. amazonensis and L. infantum (IC50) strains. Promastigotes from both species were collected, counted, and diluted in Schneider’s medium (Sigma-Aldrich, St. Louis, MO, USA) supplemented with 20% fetal bovine serum (FBS) at a final concentration of 1 × 10^6 cells/mL. The evaluated promastigotes were then exposed to different concentrations of the tested compounds (10, 5, 2.5, 1.25, and 0.625 μg/mL). The positive control used the commercial drug Amphotericin B®, while the negative control consisted of promastigotes incubated in Schneider’s medium alone. After 72 h of incubation at 25 °C, culture growth was observed by counting the viable cells using a Neubauer chamber and calculated using the following Equation (1): No. Leishmania/mL = No. of cells counted × No. of Neubauer chamber(1) quadrants × the dilution used × 10^4 (Neubauer chamber correction factor)
(§3) The concentration parameter that inhibits 50% of parasite growth (IC50) was used to estimate the growth inhibition of the promastigote species of Leishmania sp. Thus, IC50 was determined by linear regression analysis with SPSS 8.0 software for Windows. Each test was performed in two independent experiments, with different cultures and in technical triplicate.

[2] = tested on: L. amazonensis promastigotes (Strain MHOM/BR/PH8); assay: as above; type: cell-based, Leishmania amazonensis; conditions: 72 h incubation, read-out: L. amazonensis IC50PRO
Experimental: as §1, §2, §3

[3] = tested on: L. amazonensis axenic amastigotes; assay: Anti-amastigote effect on axenic amastigotes, MTT; type: cell-based, Leishmania amazonensis
Experimental: The amastigote forms of L. amazonensis were maintained under cryopreservation until they were transferred to an NNN medium (Novy–MacNeal–Nicolle) and incubated at 26 °C until the parasites reached the log growth phase. Subsequently, the suspension was transferred to Schneider culture medium (Sigma-Aldrich, St. Louis, MO, USA), supplemented with 20% inactivated fetal bovine serum and 0.2% gentamicin sulfate at 26 °C, causing the parasites to return to the log growth phase. The cultures were then maintained at 37 °C, producing a growth curve and the formation of the axenic amastigote strains.
The concentrations of the compounds AMTAC-02 and ACMD-03 capable of eliminating 50% of the cells in the cultures of L. amazonensis amastigotes (IC50) were determined using the MTT [3-(4,5-dimethylthiazol-2-yl)-2,5-diphenyltetrazolium bromide] (Sigma-Aldrich) reagent. In a 96-well plate, the assay was initiated by diluting both compounds to concentrations of 2, 4, 8, 16, and 32 μg/mL and 2.0 × 10^5 axenic amastigotes per well. The plates were incubated at 37 °C for 24 h. Then, 10 μL of MTT was added per well, and the cultures were re-incubated for 4 h. Subsequently, 50 μL of dimethyl sulfoxide was added to each well to solubilize the formazan crystals formed. The absorbances were measured using a SpectraMAX GeminiXS plate spectrophotometer (Molecular Devices LLC) at a wavelength of 570 nm. The negative control consisted of untreated cells, while the positive control was assessed by incubating the axenic amastigotes with the reference drug Amphotericin B® [13].

[4] = tested on: human red blood peripheral cells (O+); assay: Hemocompatibility (hemolysis) in red blood cells; type: cell-based; conditions: 1 h at 37 °C
Experimental: The hemocompatibility of the spiro-acridine derivatives was determined using human red blood peripheral cells (O+) from healthy adults. The erythrocytes were diluted in phosphate-buffered saline (PBS) to a concentration of 5% in an 80 µL suspension and subsequently incubated with 20 µL of different concentrations of spiro-acridine derivatives and Amphotericin B® (400, 200, 100, 50, 25, 12,5, 6,25 and 3,12 μg/mL). Afterward, the samples were incubated for 1 h at 37 °C in a B.O.D incubator, and the reaction was stopped by adding 200 μL of PBS (1.5 mM KH2PO4, 8.1 mM Na2HPO4, 136.9 mM NaCl, and 2.6 mM KCl, pH 7.2). The samples were centrifuged at 2000 rpm for 10 min, at room temperature. The supernatants were collected and subjected to spectrophotometry using a spectrophotometer (model Biosystems ELx800, Curitiba, PR, Brazil) at 540 nm. The hemolysis percentage was determined as [(Abssam − Abscon)/(Abstot − Abscon) × 100], where Abssam refers to the absorbance of the sample, Abscon to the absorbance of the blank control (without compounds), and Abstot to the absorbance of total hemolysis (obtained by replacing the sample solution with an equal volume of Milli-Q water). The results were expressed as average hemolytic concentration (HC50), considering the positive control as 100% hemolysis.

[5] = Cytotoxic effect in J774 macrophage cultures, MTT; type: cell-based; conditions: mouse, J774A.1 macrophages, read-out: CC50 (50% cytotoxic concentration in J774 macrophage)
Experimental: J774A.1 macrophages (ATCC TIB-67) were kept cryopreserved in a Falcon tube containing 5 mL of DMEM (Dulbecco’s modified Eagle medium) culture medium (Gibco®), supplemented with 10% inactivated fetal bovine serum, 1% non-essential amino acids, and 1% gentamicin sulfate. The tube was centrifuged at 200 rpm for 10 min. Afterward, the supernatant was discarded, and the cells were resuspended in the culture medium and transferred to a culture bottle kept in an incubator at 37 °C with 5% CO2. The assays were carried out in triplicate using a 96-well plate to evaluate the cytotoxic effect of the selected spiro-acridine compounds on J774 macrophage cultures. The compounds were diluted and seeded at predetermined concentrations (32, 16, 8, 4, and 2 μg/mL), parallel to the distribution of 1.0 × 10^5 J774 macrophages per well. The plate was incubated for two hours in a 5% CO2 incubator at 37 °C. Only the cells were incubated in the negative control without the tested molecules. In contrast, the positive control was performed by incubating the macrophages with the commercial drug Amphotericin B®. Later, 10 μL of the MTT reagent was added per well, and the cultures were re-incubated for 4 h. Finally, 50 μL of DMSO was added to each well, and the absorbance was read on a SpectraMAX GeminiXS plate spectrophotometer (Molecular Devices LLC, San Jose, CA, USA) at a wavelength of 570 nm. […]

[6] = tested on: L. amazonensis promastigotes; set-up: method as in PMID 33765552; conditions: cited from earlier work
[7] = tested on: L. brasiliensis promastigotes; set-up: method as in PMID 33168414; conditions: cited from earlier work
[8] = tested on: L. brasiliensis axenic amastigotes; set-up: method as in PMID 33168414; conditions: cited from earlier work
[9] = tested on: L. infantum promastigote forms; set-up: method as in PMID 34311084; conditions: cited from earlier work

C[C@@H]1[C@H](O)[C@@H](C)/C=C/C=C/C=C/C=C/C=C/C=C/C=C/[C@H](O[C@@H]2O[C@H](C)[C@@H](O)[C@H](N)[C@@H]2O)C[C@@H]2O[C@](O)(C[C@@H](O)C[C@@H](O)[C@H](O)CC[C@@H](O)C[C@@H](O)CC(=O)O[C@H]1C)C[C@H](O)[C@H]2C(=O)O [ANFO B, Amphotericin B, reference compound]
IC50 ([1]; Leishmania infantum): 0.05 µM | IC50 ([2]; Leishmania amazonensis): 1.53 µM | SI (selectivity index) ([3]; J774 macrophage CC50 versus L. amazonensis axenic amastigote IC50AMA): 2.8 | IC50 ([3]; Leishmania amazonensis, 24 h, L. amazonensis axenic amastigotes, MTT): 1.08 µM | HC50 (concentration capable of promoting 50% hemolysis) [4]: 24.25 µM | CC50 at 2 h [5]: 3.09 µM

CC1=CC(=O)[C@H]2C(C)(C)CCC[C@]2(C)[C@@]1(O)CCc1ccoc1 [SOL, solidagenone]
IC50 [6]: 34.5 µM

N#CC1=CC2(c3ccccc3Nc3ccccc32)N(c2ccccc2)C1=O [ACMD-01, (E)5′-oxo-1′-phenyl-1′, 5′-dihydro-10H-spiro{acridine-9,2′-pyrrole]-4′-carbonitrile]
IC50 ([1]; Leishmania infantum): 3.9 µM | HC50 (concentration capable of promoting 50% hemolysis) [4]: >400 µM

cordiaquinone E [CORe]
IC50 [7]: 4.5 ± 0.3 µM | IC50 [8]: 2.89 ± 0.11 µM

N#CC1=CC2(c3ccccc3Nc3ccccc32)N(/N=C/c2ccc(Cl)cc2)C1=O [AMTAC-06, (E)1-(4-chlorobenzylideneamino)-5-oxo-1,5-dihydro-10H-spiro[acridine-9,2-pyrrole]-4-carbonitrile]
IC50 [1]: 13.8 µM | IC50 [2]: 0.75 µM | HC50 (concentration capable of promoting 50% hemolysis) [4]: >400 µM

COc1ccc(N2C(=O)C(C#N)=CC23c2ccccc2Nc2ccccc23)cc1 [ACMD-06, (E)1′-(4-methoxyphenyl)-5′-oxo-1′, 5′-dihydro-10H-spiro{acridine-9,2′-pyrrole]-4′-carbonitrile]
IC50 [1]: 3.5 µM | IC50 [2]: 235 µM | HC50 (concentration capable of promoting 50% hemolysis) [4]: >400 µM

N#CC1=CC2(c3ccccc3Nc3ccccc32)N(/N=C/c2ccccc2)C1=O [AMTAC-01, (E)-1′-(benzylideneamino)-5′-oxo-1′,5′-dihydro-10H-spiro[acridine-9,2′-pyrrole]-4′-carbonitrile]
IC50 ([1]; Leishmania infantum): 6.27 µM | IC50 ([2]; Leishmania amazonensis): 1.23 µM | HC50 (concentration capable of promoting 50% hemolysis) [4]: >400 µM | IC50 against the promastigote forms [9]: 2.039 µg/mL (≈ 5.42 µM)
